Results published in patent US20220177587A1, “METHODS AND USES OF VARIANT CD80 FUSION PROTEINS AND RELATED CONSTRUCTS” (Alpine Immune Sciences, Inc., priority 2018, published 2022).

What was measured:
allogeneic CD4+ T cells = assay: Mixed Lymphocyte Reaction (MLR), IFN-gamma; format: cell-based, human; conditions: Table E32; variant ECD-Fc in MLR assay; culture supernatant
Method: Soluble rCD80.Fc bioactivity was tested in a human Mixed Lymphocyte Reaction (MLR). Human primary dendritic cells (DC) were generated by culturing monocytes isolated from PBMC (BenTech Bio, USA) in vitro for 7 days with 500U/ml rIL-4 (R&D Systems, USA) and 250 U/ml rGM-CSF (R&D Systems, USA) in Ex-Vivo 15 media (Lonza, Switzerland). 10,000 matured DC and 100,000 purified allogeneic CD4+ T cells (BenTech Bio, USA) were co-cultured with variant CD80 Fc fusion proteins and controls in 96 well round bottom plates in 200 μl final volume of Ex-Vivo 15 media. On day 5, IFN-gamma secretion in culture supernatants was analyzed using the Human IFN-gamma Duoset ELISA kit (R&D Systems, USA). Optical density was measured by VMax ELISA Microplate Reader (Molecular Devices, USA) and quantitated against titrated rIFN-gamma standard included in the IFN-gamma Duo-set kit (R&D Systems, USA).

human pan T cells = assay: Anti-CD3 coimmobilization assay, IFN-gamma; format: cell-based; conditions: Table E32; variant ECD-Fc coimmobilized with anti-CD3; culture supernatant
Method: Costimulatory bioactivity of CD80 fusion variants was determined in anti-CD3 coimmobilization assays. 1 nM or 4 nM mouse anti-human CD3 (OKT3, Biolegends, USA) was diluted in PBS with 1 nM to 80 nM rCD80.Fc variant proteins. This mixture was added to tissue culture treated flat bottom 96-well plates (Corning, USA) overnight to facilitate adherence of the stimulatory proteins to the wells of the plate. The next day, unbound protein was washed off the plates and 100,000 purified human pan T cells (BenTech Bio, US) or human T cell clone BC3 (Astarte Biologics, USA) were added to each well in a final volume of 200 μl of Ex-Vivo 15 media (Lonza, Switzerland). Cells were cultured 3 days before harvesting culture supernatants and measuring human IFN-gamma levels with Duoset ELISA kit (R&D Systems, USA) as described above.

huPD-L1 = huPD-L1 (Homo sapiens, UniProt Q9NZQ7); assay: Flow binding to Expi293F cells transfected with PD-L1 (ECD variants); parameters: Full-length mammalian surface expression constructs for each of human CTLA-4, PD-L1, and CD28; host or cells: HEK293 cells, Expi293F transient transfection system; conditions: Table E32; variant CD80 ECD-Fc selected against CD28
Method: To produce cells expressing cognate binding partners, full-length mammalian surface expression constructs for each of human CD28, CTLA-4 and PD-L1, were designed in pcDNA3.1 expression vector (Life Technologies) and sourced from Genscript, USA. Binding studies were carried out using the Expi293F transient transfection system (Life Technologies, USA). […] For each CD28, CTLA-4, PD-L1, or mock 30 ml transfection, 75 million Expi293F cells were incubated with 30 μg expression construct DNA and 1.5 ml diluted ExpiFectamine 293 reagent for 48 hours, at which point cells were harvested for staining.
For staining by flow cytometry, 200,000 cells of appropriate transient transfection or negative control were plated in 96-well round bottom plates. Cells were spun down and resuspended in staining buffer (PBS (phosphate buffered saline), 1% BSA (bovine serum albumin), and 0.1% sodium azide) for 20 minutes to block non-specific binding. […] Secondary antibody was washed out twice, cells were fixed in 4% formaldehyde/PBS, and samples were analyzed on FACScan flow cytometer (Becton Dickinson, USA).
Mean Fluorescence Intensity (MFI) was calculated for each transfectant and negative parental line with Cell Quest Pro software (Becton Dickinson, USA).

Chain of huPD-L1 (Q9NZQ7 19-290): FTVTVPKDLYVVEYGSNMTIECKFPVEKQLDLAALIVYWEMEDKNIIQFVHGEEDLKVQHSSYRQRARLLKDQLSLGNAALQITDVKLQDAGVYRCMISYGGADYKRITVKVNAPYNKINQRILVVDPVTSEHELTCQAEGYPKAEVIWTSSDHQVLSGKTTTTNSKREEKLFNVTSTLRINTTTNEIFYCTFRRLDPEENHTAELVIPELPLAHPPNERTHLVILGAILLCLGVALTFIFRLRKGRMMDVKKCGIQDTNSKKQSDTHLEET

- Binding PD-L1 MFI (huPD-L1): 70
Substance: WT CD80
- MLR IFN-gamma levels (allogeneic CD4+ T cells): 866 pg/mL
- Coimmobilization with anti CD3 IFN-gamma (human pan T cells): 83 pg/mL
